The structures appear in SMILES notation.

The assay deals with T1, hTAS1R1 R277A/rTAS1R3 (Homo sapiens, UniProt Q7RTX1, R277A).
T1 construct: UniProtKB number Q7RTX1–1); expressed in transfected cells; host or cells: HEK293T/17 (ATCC CRL-11268)
T1 sequence (Q7RTX1 21-841 R277A): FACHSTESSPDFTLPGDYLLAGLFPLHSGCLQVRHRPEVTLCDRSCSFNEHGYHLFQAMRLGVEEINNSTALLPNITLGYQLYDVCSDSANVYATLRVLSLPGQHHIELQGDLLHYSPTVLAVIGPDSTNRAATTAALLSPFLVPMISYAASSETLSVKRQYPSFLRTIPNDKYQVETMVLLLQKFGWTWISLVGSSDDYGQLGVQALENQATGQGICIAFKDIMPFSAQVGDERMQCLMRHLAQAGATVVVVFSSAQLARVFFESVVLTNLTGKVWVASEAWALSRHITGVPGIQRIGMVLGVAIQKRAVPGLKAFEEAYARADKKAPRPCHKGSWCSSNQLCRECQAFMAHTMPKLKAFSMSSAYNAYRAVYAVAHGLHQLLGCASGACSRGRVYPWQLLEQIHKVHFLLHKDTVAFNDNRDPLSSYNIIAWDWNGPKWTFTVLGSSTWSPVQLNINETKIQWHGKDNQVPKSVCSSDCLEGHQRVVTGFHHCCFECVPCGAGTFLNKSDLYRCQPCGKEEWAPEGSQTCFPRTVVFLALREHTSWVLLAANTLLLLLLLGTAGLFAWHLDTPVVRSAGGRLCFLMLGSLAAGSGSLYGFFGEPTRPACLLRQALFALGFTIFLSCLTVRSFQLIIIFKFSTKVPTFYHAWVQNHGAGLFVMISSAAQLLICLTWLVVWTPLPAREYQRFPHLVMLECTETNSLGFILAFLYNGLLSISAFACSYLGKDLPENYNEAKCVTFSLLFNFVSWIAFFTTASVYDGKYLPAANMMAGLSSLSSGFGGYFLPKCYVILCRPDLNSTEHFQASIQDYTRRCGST
T1 sequence (Q923K1 21-858 partner): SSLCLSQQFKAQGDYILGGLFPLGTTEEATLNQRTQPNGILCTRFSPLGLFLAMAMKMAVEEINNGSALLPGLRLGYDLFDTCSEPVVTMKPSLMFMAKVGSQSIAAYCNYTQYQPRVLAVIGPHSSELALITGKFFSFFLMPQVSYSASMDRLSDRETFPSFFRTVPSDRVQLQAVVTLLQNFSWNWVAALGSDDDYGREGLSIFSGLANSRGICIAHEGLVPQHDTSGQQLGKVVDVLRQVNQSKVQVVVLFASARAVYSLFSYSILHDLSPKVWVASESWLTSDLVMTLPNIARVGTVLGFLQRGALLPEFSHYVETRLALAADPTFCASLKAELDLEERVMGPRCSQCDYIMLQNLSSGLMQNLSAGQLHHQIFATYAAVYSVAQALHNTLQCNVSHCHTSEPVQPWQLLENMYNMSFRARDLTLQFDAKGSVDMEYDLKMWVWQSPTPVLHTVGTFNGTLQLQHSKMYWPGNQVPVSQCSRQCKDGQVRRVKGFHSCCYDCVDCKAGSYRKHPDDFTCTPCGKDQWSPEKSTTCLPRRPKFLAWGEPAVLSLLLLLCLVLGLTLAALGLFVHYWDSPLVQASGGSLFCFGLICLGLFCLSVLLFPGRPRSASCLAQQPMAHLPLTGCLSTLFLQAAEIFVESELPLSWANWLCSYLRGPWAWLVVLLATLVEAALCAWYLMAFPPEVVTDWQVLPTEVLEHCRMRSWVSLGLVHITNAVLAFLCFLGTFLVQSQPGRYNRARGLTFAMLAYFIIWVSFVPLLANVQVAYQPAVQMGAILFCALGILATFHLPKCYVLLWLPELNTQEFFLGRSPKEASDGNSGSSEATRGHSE
The experiment in a line: Calcium assay, hTAS1R1 mutant co-expressed with rTAS1R3. It is filed as cell-based, rat.

As usually defined, the EC50 is the concentration needed to bring the measured effect to its halfway point. For the molecule `N[C@@H](CCC(=O)N[C@@H](CS)C(=O)NCC(=O)O)C(=O)O` [GSH, γ-L-glutamyl-L-cysteinyl-glycine], the EC50 worked out at 1.84 ± 0.174 mM. Besides, where the note is “R277A”, the “effect of the added compound (1 mM) on the response to L-Glu” value was “did not affect” and the “response to the agonist alone, vs WT” value is on record as “significantly increased the initial amplitude”. Also, where the note is “R277A, GSH”, the “Max ∆F/F0” value came out at 0.85 ± 0.02 and the “R1 = mutant EC50/WT EC50” value stood at 0.7.
As for `N[C@@H](CCC(=O)O)C(=O)O` [L-Glu, L-glutamic acid, reference compound], the “response to the agonist alone, vs WT” value (R277A) is reported as “increased the amplitude”.

The record behind these values is article PMC12615753, “Glutathione as a taste modulator: molecular mechanisms of interaction with umami and sweet taste receptors” (Food Chemistry: Molecular Sciences, 2025).
